The numbers were not newly measured in patent US12303619B2, “Polymer implants” (Foundry Therapeutics, Inc., priority 2018, dated 2025), which cites them from elsewhere.

Turning to `CCCCN1CCCCC1C(=O)Nc1c(C)cccc1C` (stereo not shown) [bupivacaine], the pKa result is recorded as “about 8.0”.
